Experimental findings from patent US20240174714A1, “TREATMENT OF SKIN DISORDERS” (priority 2021, published 2024) are described below.

Read-outs that look alike come from different tables or passages of the source. Square brackets hold non-standard residues; d marks the D form. Peptide text beside a SMILES is read from it. * marks the point of attachment. Adamantane1carbonyl = O=C(C12CC3CC(CC(C3)C1)C2)*; NH((S)CH(Me)CH2NMe2) = C[C@@H](CN(C)C)N*; Benzoyl(4-OMe) = COc1ccc(C(=O)*)cc1; Gly(octyl) = CCCCCCCC[C@H](N)C(=O)O; Oxazole4CO(2-Me) = Cc1nc(C(=O)*)co1; Thiophene2carbonyl = O=C(c1cccs1)*; X4 = COc1ccc2cc(C(=O)*)c(=O)oc2c1; X6 = O=C(c1ccnc2cc(Cl)ccc12)*; X7 = O=C(c1ccc2[nH]ccc2c1)*; X5 = O=C(C1CCc2ccccc2C1)*; Aib = CC(C)(N)C(=O)O; Bz = O=C(c1ccccc1)*; βAla = NCCC(=O)O

The nature of series [1]: Cytotoxicity assay (Alamar Blue) on L6-cells. It counts as cell-based, rat. The protocol:
Tests were done in triplicate.
The plates were incubated for additional 2 h.

Series [2] deals with axenic Leishmania donovani MHOM-ET-67/L82 amastigotes. The series can be described thus: In vitro antiprotozoal assay, axenic amastigotes. The series is classed as cell-based. The following applies: axenic amastigotes; read-out: L.don.ax. IC50.
Method: (§1) The testing of the inventive compounds against Leishmania donovani (strain MHOM/ET/67/L82) was performed in 96 well plates at concentrations in serial dilutions. Tests were done in triplicate.
Series [3] has as its system intracellular Leishmania donovani MHOM-ET-67/L82 amastigotes. The series can be described thus: In vitro antiprotozoal assay, intracellular amastigotes. It counts as cell-based. The following applies: intracellular amastigotes; read-out: L.don.InMac IC50.
Method: as §1
[4] abbreviates: rat myoblast L6 cells, read-out: Cytotox L6 IC50.

In the case of `CCCCCCCC[C@H](NC(=O)[C@@H]1CCCN1C(=O)c1ccccc1)C(=O)N[C@@H](CC(C)C)C(=O)NC(C)(C)C(=O)N[C@@H](CC(C)C)C(=O)N[C@@H](CC(C)C)C(=O)NC(C)(C)C(=O)NC(C)(C)C(=O)NCCC(=O)N[C@@H](C)CN(C)C` [Compound 5649, (2S)-2-{[(2S)-1-benzoylpyrrolidin-2-yl]formamido}-N-[(1S)-1-[(1-{[(1S)-1-{[(1S)-1-{[1-({1-[(2-{[(2S)-1-(dimethylamino)propan-2-yl]carbamoyl}ethyl)carbamoyl]-1-methylethyl}carbamoyl)-1-methylethyl]carbamoyl}-3-methylbutyl]carbamoyl}-3-methylbutyl]carbamoyl}-1-methylethyl)carbamoyl]-3-methylbutyl]decanamide] (Bz-P[Gly(octyl)]L[Aib]LL[Aib][Aib][βAla]-{NH((S)CH(Me)CH2NMe2)}), the IC50 at 68 h in series [1] (setting [4]) stood at 0.274 µM. Also, the IC50 in series [2] was 0.0035 µM; in series [3], 0.0272 µM.
As for `CCCCCCCC[C@H](NC(=O)[C@@H]1CCCN1C(=O)c1ccnc2cc(Cl)ccc12)C(=O)N[C@@H](CC(C)C)C(=O)NC(C)(C)C(=O)N[C@@H](CC(C)C)C(=O)N[C@@H](CC(C)C)C(=O)NC(C)(C)C(=O)NC(C)(C)C(=O)NCCC(=O)N[C@@H](C)CN(C)C` [Compound 5768, (2S)-2-{[(2S)-1-(7-chloroquinoline-4-carbonyl)pyrrolidin-2-yl]formamido}-N-[(1S)-1-[(1-{[(1S)-1-{[(1S)-1-{[1-({1-[(2-{[(2S)-1-(dimethylamino)propan-2-yl]carbamoyl}ethyl)carbamoyl]-1-methylethyl}carbamoyl)-1-methylethyl]carbamoyl}-3-methylbutyl]carbamoyl}-3-methylbutyl]carbamoyl}-1-methylethyl)carbamoyl]-3-methylbutyl]decanamide] (X6-P[Gly(octyl)]L[Aib]LL[Aib][Aib][βAla]-{NH((S)CH(Me)CH2NMe2)}), the IC50 at 68 h in series [1] (rat) was 0.627 µM. The IC50 in series [2] came to 0.0335 µM; in series [3] it was 0.257 µM.
Taken in the same sequence, the figures for `CCCCCCCC[C@H](NC(=O)[C@@H]1CCCN1C(=O)c1cc2ccc(OC)cc2oc1=O)C(=O)N[C@@H](CC(C)C)C(=O)NC(C)(C)C(=O)N[C@@H](CC(C)C)C(=O)N[C@@H](CC(C)C)C(=O)NC(C)(C)C(=O)NC(C)(C)C(=O)NCCC(=O)N[C@@H](C)CN(C)C` [Compound 5769, (2S)-N-[(1S)-1-[(1-{[(1S)-1-{[(1S)-1-{[1-({1-[(2-{[(2S)-1-(dimethylamino)propan-2-yl]carbamoyl}ethyl)carbamoyl]-1-methylethyl}carbamoyl)-1-methylethyl]carbamoyl}-3-methylbutyl]carbamoyl}-3-methylbutyl]carbamoyl}-1-methylethyl)carbamoyl]-3-methylbutyl]-2-{[(2S)-1-(7-methoxy-2-oxo-2H-chromene-3-carbonyl)pyrrolidin-2-yl]formamido}decanamide] (X4-P[Gly(octyl)]L[Aib]LL[Aib][Aib][βAla]-{NH((S)CH(Me)CH2NMe2)}) were 0.423 µM, 0.0081 µM and 0.216 µM.
Turning to `CCCCCCCC[C@H](NC(=O)[C@@H]1CCCN1C(=O)C12CC3CC(CC(C3)C1)C2)C(=O)N[C@@H](CC(C)C)C(=O)NC(C)(C)C(=O)N[C@@H](CC(C)C)C(=O)N[C@@H](CC(C)C)C(=O)NC(C)(C)C(=O)NC(C)(C)C(=O)NCCC(=O)N[C@@H](C)CN(C)C` [Compound 5770, (2S)-2-{[(2S)-1-(adamantane-1-carbonyl)pyrrolidin-2-yl]formamido}-N-[(1S)-1-[(1-{[(1S)-1-{[(1S)-1-{[1-({1-[(2-{[(2S)-1-(dimethylamino)propan-2-yl]carbamoyl}ethyl)carbamoyl]-1-methylethyl}carbamoyl)-1-methylethyl]carbamoyl}-3-methylbutyl]carbamoyl}-3-methylbutyl]carbamoyl}-1-methylethyl)carbamoyl]-3-methylbutyl]decanamide] (Adamantane1carbonyl-P[Gly(octyl)]L[Aib]LL[Aib][Aib][βAla]-{NH((S)CH(Me)CH2NMe2)}), the IC50 at 68 h in series [1] (rat) is 0.185 µM. Moreover, the half-maximal inhibitory concentration (IC50) in series [2] worked out at 0.001 µM; in series [3] it was 0.338 µM.
On to `CCCCCCCC[C@H](NC(=O)[C@@H]1CCCN1C(=O)c1cccs1)C(=O)N[C@@H](CC(C)C)C(=O)NC(C)(C)C(=O)N[C@@H](CC(C)C)C(=O)N[C@@H](CC(C)C)C(=O)NC(C)(C)C(=O)NC(C)(C)C(=O)NCCC(=O)N[C@@H](C)CN(C)C` [Compound 5904, (2S)-N-[(1S)-1-[(1-{[(1S)-1-{[(1S)-1-{[1-({1-[(2-{[(2S)-1-(dimethylamino)propan-2-yl]carbamoyl}ethyl)carbamoyl]-1-methylethyl}carbamoyl)-1-methylethyl]carbamoyl}-3-methylbutyl]carbamoyl}-3-methylbutyl]carbamoyl}-1-methylethyl)carbamoyl]-3-methylbutyl]-2-{[(2S)-1-(thiophene-2-carbonyl)pyrrolidin-2-yl]formamido}decanamide] (Thiophene2carbonyl-P[Gly(octyl)]L[Aib]LL[Aib][Aib][βAla]-{NH((S)CH(Me)CH2NMe2)}), for which the IC50 at 68 h in series [1] (setting [4]) came out at 0.216 µM. The IC50 in series [2] came out at 0.0031 µM; in series [3], 0.0114 µM.
`CCCCCCCC[C@H](NC(=O)[C@@H]1CCCN1C(=O)c1coc(C)n1)C(=O)N[C@@H](CC(C)C)C(=O)NC(C)(C)C(=O)N[C@@H](CC(C)C)C(=O)N[C@@H](CC(C)C)C(=O)NC(C)(C)C(=O)NC(C)(C)C(=O)NCCC(=O)N[C@@H](C)CN(C)C` [Compound 5905, (2S)-N-[(1S)-1-[(1-{[(1S)-1-{[(1S)-1-{[1-({1-[(2-{[(2S)-1-(dimethylamino)propan-2-yl]carbamoyl}ethyl)carbamoyl]-1-methylethyl}carbamoyl)-1-methylethyl]carbamoyl}-3-methylbutyl]carbamoyl}-3-methylbutyl]carbamoyl}-1-methylethyl)carbamoyl]-3-methylbutyl]-2-{[(2S)-1-(2-methyl-1,3-oxazole-4-carbonyl)pyrrolidin-2-yl]formamido}decanamide] ({Oxazole4CO(2-Me)}-P[Gly(octyl)]L[Aib]LL[Aib][Aib][βAla]-{NH((S)CH(Me)CH2NMe2)}) returned a half-inhibitory concentration (IC50) at 68 h in series [1] (rat) of 0.852 µM. Besides, the IC50 in series [2] worked out at 0.0079 µM; in series [3], 0.0131 µM.
`CCCCCCCC[C@H](NC(=O)[C@@H]1CCCN1C(=O)C1CCc2ccccc2C1)C(=O)N[C@@H](CC(C)C)C(=O)NC(C)(C)C(=O)N[C@@H](CC(C)C)C(=O)N[C@@H](CC(C)C)C(=O)NC(C)(C)C(=O)NC(C)(C)C(=O)NCCC(=O)N[C@@H](C)CN(C)C` (stereo partly drawn) [Compound 5910, (2S)—N-[(1S)-1-[(1-{[(1S)-1-{[(1S)-1-{[1-({1-[(2-{[(2S)-1-(dimethylamino)propan-2-yl]carbamoyl}ethyl)carbamoyl]-1-methylethyl}carbamoyl)-1-methylethyl]carbamoyl}-3-methylbutyl]carbamoyl}-3-methylbutyl]carbamoyl}-1-methylethyl)carbamoyl]-3-methylbutyl]-2-{[(2S)-1-(1,2,3,4-tetrahydronaphthalene-2-carbonyl)pyrrolidin-2-yl]formamido}decanamide] (X5-P[Gly(octyl)]L[Aib]LL[Aib][Aib][βAla]-{NH((S)CH(Me)CH2NMe2)}): the IC50 at 68 h in series [1] (rat) worked out at 0.23 µM. Moreover, the IC50 amounted to 0.0021 µM in series [2] and 0.0067 µM in series [3].
`CCCCCCCC[C@H](NC(=O)[C@@H]1CCCN1C(=O)c1ccc2[nH]ccc2c1)C(=O)N[C@@H](CC(C)C)C(=O)NC(C)(C)C(=O)N[C@@H](CC(C)C)C(=O)N[C@@H](CC(C)C)C(=O)NC(C)(C)C(=O)NC(C)(C)C(=O)NCCC(=O)N[C@@H](C)CN(C)C` [Compound 5911, (2S)—N-[(1S)-1-[(1-{[(1S)-1-{[(1S)-1-{[1-({1-[(2-{[(2S)-1-(dimethylamino)propan-2-yl]carbamoyl}ethyl)carbamoyl]-1-methylethyl}carbamoyl)-1-methylethyl]carbamoyl}-3-methylbutyl]carbamoyl}-3-methylbutyl]carbamoyl}-1-methylethyl)carbamoyl]-3-methylbutyl]-2-{[(2S)-1-(1H-indole-5-carbonyl)pyrrolidin-2-yl]formamido}decanamide] (X7-P[Gly(octyl)]L[Aib]LL[Aib][Aib][βAla]-{NH((S)CH(Me)CH2NMe2)}): 0.457 µM corresponded to half-maximal inhibition in series [1] (rat) (IC50 at 68 h). In addition, the IC50 amounted to 0.0144 µM in series [2] and 0.0348 µM in series [3].
The compound `CCCCCCCC[C@H](NC(=O)[C@@H]1CCCN1C(=O)c1ccc(OC)cc1)C(=O)N[C@@H](CC(C)C)C(=O)NC(C)(C)C(=O)N[C@@H](CC(C)C)C(=O)N[C@@H](CC(C)C)C(=O)NC(C)(C)C(=O)NC(C)(C)C(=O)NCCC(=O)N[C@@H](C)CN(C)C` [Compound 5912, (2S)—N-[(1S)-1-[(1-{[(1S)-1-{[(1S)-1-{[1-({1-[(2-{[(2S)-1-(dimethylamino)propan-2-yl]carbamoyl}ethyl)carbamoyl]-1-methylethyl}carbamoyl)-1-methylethyl]carbamoyl}-3-methylbutyl]carbamoyl}-3-methylbutyl]carbamoyl}-1-methylethyl)carbamoyl]-3-methylbutyl]-2-{[(2S)-1-(4-methoxybenzoyl)pyrrolidin-2-yl]formamido}decanamide] ({Benzoyl(4-OMe)}-P[Gly(octyl)]L[Aib]LL[Aib][Aib][βAla]-{NH((S)CH(Me)CH2NMe2)}) gave an IC50 at 68 h in series [1] (rat) of 0.254 µM. In addition, the IC50 in series [2] is 0.0051 µM; in series [3], 0.0128 µM.
